In ChEMBL document CHEMBL1201862, “PubChem BioAssay data set” (2004):
Active and inactive are the calls of the source.

Columns and labels:
[1] = biological target: Heat shock protein HSP 90-alpha (Homo sapiens, UniProt P07900); assay type: functional, organism-based
[2] = test system: Streptococcus; test: GAS UMAA2166 growth inhibition – luminescence, BacTiterGlo, counter-screen for streptokinase expression inhibitor project, dose response (AID 1915); assay type: functional, organism-based;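 further: potency for reduction of bacterial viability or growth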
[3] = test system: BJ; test: BJ-TERT-LT-ST fibroblast viability loss – cell-based, RAS-independent, luminescence, dose response (AID 1935); assay type: functional; details: Homo sapiens;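 further: BJ fibroblasts immortalized with TERT plus LT and ST oncogenes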
[4] = THP-1 cell cytotoxicity, dose response, cytotoxicity control, set 3 (AID 504852); assay type: functional; details: Mycobacterium tuberculosis
[5] = A Cell Based Secondary Assay to Explore Cytotoxicity in HepG2 Cells of Compounds that Modulate Mycobacterium tuberculosis in Media Containing Glycerol versus Media without Glycerol (2).; assay type: functional
[6] = biological target: T1, Streptokinase A (Streptococcus pyogenes serotype M1, UniProt P10520); test: viability-normalized secreted streptokinase activity reduction – plasminogen activation absorbance, OD405, dose response (AID 1914); assay type: functional, Streptococcus pyogenes M1 GAS;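 further: secreted streptokinase activity via plasminogen activation per viability signal from cell pellet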
T1 sequence (P10520 whole entry): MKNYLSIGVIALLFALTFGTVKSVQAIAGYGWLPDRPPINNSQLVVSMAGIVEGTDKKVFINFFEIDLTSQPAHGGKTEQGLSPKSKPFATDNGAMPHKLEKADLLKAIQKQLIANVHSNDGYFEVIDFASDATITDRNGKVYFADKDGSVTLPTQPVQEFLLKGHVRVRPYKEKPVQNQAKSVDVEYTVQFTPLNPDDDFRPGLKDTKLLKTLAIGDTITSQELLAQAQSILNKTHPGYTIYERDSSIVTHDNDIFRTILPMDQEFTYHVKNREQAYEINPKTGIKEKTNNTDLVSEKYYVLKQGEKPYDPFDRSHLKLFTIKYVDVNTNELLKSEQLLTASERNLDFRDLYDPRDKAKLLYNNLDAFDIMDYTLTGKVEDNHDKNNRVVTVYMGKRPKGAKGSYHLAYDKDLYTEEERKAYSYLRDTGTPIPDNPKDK

[7] = test system: Streptococcus sp. 'group A'; test: Streptococcus pyogenes SK(-)GAS viability under kanamycin – luminescence, BacTiterGlo, confirmation, counter-screen for streptokinase expression inhibitor project, dose response (AID 1900); assay type: functional, organism-based
[8] = microbe, parasite or virus in culture; assay type: functional; details: Mycobacterium tuberculosis
[9] = DRD fibroblast viability loss – cell-based, non-viral oncogenic, luminescence, dose response (AID 1934); assay type: functional; details: Homo sapiens
[10] = test system: BJ; test: cells; assay type: functional, cell-based; details: Homo sapiens
[11] = Vero cell cytotoxicity, cytotoxicity control for M. tuberculosis inhibitor project, purified and synthesized samples, set 3 (AID 504684); assay type: functional
[12] = A Cell Based Secondary Assay to Explore Cytotoxicity in THP-1 Cells of Compounds that Modulate Mycobacterium tuberculosis in Media Containing Glycerol versus Media without Glycerol (2).; assay type: functional
[13] = THP-1 cell cytotoxicity, cytotoxicity control, set 4 (AID 504911); assay type: functional; details: Mycobacterium tuberculosis
[14] = test system: BJ; test: BJ-TERT fibroblast viability loss – cell-based, RAS-independent, luminescence, dose response (AID 1933); assay type: functional; details: Homo sapiens
[15] = test system: INS1; test: INS-1E survival protection against cytokine death – cell-based, luminescence, retest, dose response (AID 449756); assay type: functional; details: Rattus norvegicus;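 further: cell death triggered by IL-1 beta plus TNF-alpha plus IFN-gamma mixture; protective hits raise ATP signal compared with cytokine alone wells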
[16] = biological target: T2, Heat shock factor protein 1 (Mus musculus, UniProt P38532); test: enhancement of HSF1-driven luciferase signal – cell-based, NIH3T3, luminescence, dose retest, confirmation (AID 435004); assay type: functional;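 further: stress induced by proteasome inhibitor MG132 added 30 min after compound; luciferase reporter driven by HSF1 response element in NIH3T3 cells; actives raise luminescence as potentiators of the MG132 stress response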
T2 sequence (P38532 whole entry): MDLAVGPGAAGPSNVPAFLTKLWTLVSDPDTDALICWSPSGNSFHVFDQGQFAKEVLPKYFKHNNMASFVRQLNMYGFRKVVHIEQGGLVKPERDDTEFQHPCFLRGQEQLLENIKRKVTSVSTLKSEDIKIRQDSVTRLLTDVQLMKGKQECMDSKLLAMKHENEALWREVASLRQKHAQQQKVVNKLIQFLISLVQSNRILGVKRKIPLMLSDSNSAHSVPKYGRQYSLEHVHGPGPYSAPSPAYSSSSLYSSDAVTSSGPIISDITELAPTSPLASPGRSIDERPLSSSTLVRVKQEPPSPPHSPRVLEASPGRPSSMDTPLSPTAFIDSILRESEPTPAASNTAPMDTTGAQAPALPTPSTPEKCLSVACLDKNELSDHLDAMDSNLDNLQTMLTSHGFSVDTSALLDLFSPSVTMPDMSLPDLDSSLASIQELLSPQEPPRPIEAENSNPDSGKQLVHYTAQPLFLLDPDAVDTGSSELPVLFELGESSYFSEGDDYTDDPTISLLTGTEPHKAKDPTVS

For `Cc1cccc(/C=C/C(=O)c2ccc([N+](=O)[O-])o2)c1`, which AC50 [1] is on record?
The AC50 was 2.39 µM (active).

What about the EC50 [2] of the same compound?
The EC50 was 14.4 µM (active).

What about the EC50 [3] of the same compound?
The EC50 was > 150 µM (inconclusive).

What about the CC50 [4] of the same compound?
Its CC50 is > 100 µM (active).

And the CC50 [5]?
The CC50 was 8.39 µM (active).

What about the EC50 [6] of the same compound?
The EC50 was 9.69 µM (active).

What about the EC50 [7] of the same compound?
The EC50 was 3.96 µM (active).

And the CC50 [8]?
The CC50 was 18.8 µM (active).

What about the EC50 [9] of the same compound?
Its EC50 is 2.23 µM (active).

What about the EC50 [10] of the same compound?
The EC50 was > 150 µM (inconclusive).

And the CC50 [11]?
Its CC50 is 12.4 µM (active).

What about the CC50 [12] of the same compound?
Its CC50 is 12.2 µM (active).

What about the CC50 [13] of the same compound?
The CC50 was > 100 µM (active).

And the EC50 [14]?
Its EC50 is > 150 µM (not active).

And the AC50 [15]?
Its AC50 is 3.29 µM (active).

And the EC50 [16]?
The EC50 was 3.43 µM (inconclusive).
